Data from patent publication US8247211B2, “Glycopeptide antibiotics” (American Cyanamid Company, priority 2001, dated 2012).
Converted amounts (≈) assume the structure as drawn.

What was measured:
Test in all cases: In vitro antibacterial evaluation: minimum inhibitory concentration (MIC), broth dilution method
Type in all cases: cell-based
Escherichia coli = conditions: broth dilution, 18 hours at 35° C.
Streptococcus sp. = conditions: broth dilution, 18 hours at 35° C.
Method in brief: (§1)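 Values are minimum inhibitory concentrations, meaning the smallest antibiotic concentration that stops growth of the organism. They come from broth dilution in Muller-Hinton II […] per NCCLS guidance (M7-A2), using 5×10^5 CFU/mL and concentrations from 64 to 0.06 μg/mL.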

Staphylococcus sp. = conditions: strain SMITH GC 4543; broth dilution, 18 hours at 35° C.
Method in brief: as §1

Enterococcus sp. = conditions: broth dilution, 18 hours at 35° C.
Method in brief: as §1

CC(=O)Nc1cc(CC2NC(=O)C(C(C)c3ccccc3)NC(=O)CNC(=O)C(CO)NC(=O)C(C(O)C3CNC(=N)N3C3OC(CO)C(O)C(O)C3O)NC(=O)C(C(O)C3CNC(=N)N3)NC2=O)ccc1O (stereo not drawn) [Example 13, Cyclo[glycyl-β-methylphenylalanyl-3-acetamidotyrosyl-3-(2-iminoimidazolidin-4-yl)seryl-3-(3-hexopyranosyl-2-iminoimidazolidin-4-yl)serylseryl]]
MIC Escherichia coli (ATCC 25922) (Escherichia coli): >64 µg/mL
MIC Escherichia coli (GC 4559) (Escherichia coli): >64 µg/mL
MIC Escherichia coli (GC 4560) (Escherichia coli): 32 µg/mL (≈ 31.1 µM)
MIC Streptococcus agalactiae (GC 4564) (Streptococcus sp.; Streptococcus agalactiae (GC 4564)): 16 µg/mL (≈ 15.6 µM)
MIC Streptococcus pneumoniae (ATCC 6301) (Streptococcus sp.; Streptococcus pneumoniae (ATCC 6301)): 4 µg/mL (≈ 3.89 µM)
MIC Streptococcus pneumoniae (GC 1894) (Streptococcus sp.; Streptococcus pneumoniae (GC 1894)): 2 µg/mL (≈ 1.95 µM)
MIC Streptococcus pneumoniae (GC 4565) (Streptococcus sp.; Streptococcus pneumoniae (GC 4565)): 4 µg/mL (≈ 3.89 µM)
MIC Streptococcus pyogenes (GC 4563) (Streptococcus sp.; Streptococcus pyogenes (GC 4563)): 8 µg/mL (≈ 7.78 µM)
MIC Streptococcus agalactiae (GC 4564) (Streptococcus sp.): 16 µg/mL (≈ 15.6 µM)
MIC Streptococcus pneumoniae (ATCC 6301) (Streptococcus sp.): 4 µg/mL (≈ 3.89 µM)
MIC Streptococcus pneumoniae (GC 1894) (Streptococcus sp.): 2 µg/mL (≈ 1.95 µM)
MIC Streptococcus pneumoniae (GC 4565) (Streptococcus sp.): 4 µg/mL (≈ 3.89 µM)
MIC Streptococcus pyogenes (GC 4563) (Streptococcus sp.): 8 µg/mL (≈ 7.78 µM)
MIC Staphylococcus aureus-SMITH (GC 4543) (Staphylococcus sp.): 64 µg/mL (≈ 62.3 µM)
MIC Enterococcus avium (GC 4558) (Enterococcus sp.; Enterococcus avium (GC 4558)): 64 µg/mL (≈ 62.3 µM)
MIC Enterococcus faecalis (ATCC 29212) (Enterococcus sp.; Enterococcus faecalis (ATCC 29212)): >64 µg/mL
MIC Enterococcus faecalis (GC 2242) (Enterococcus sp.; Enterococcus faecalis (GC 2242)): 64 µg/mL (≈ 62.3 µM)
MIC Enterococcus faecalis (GC 2691) (Enterococcus sp.; Enterococcus faecalis (GC 2691)): >64 µg/mL
MIC Enterococcus faecalis (GC 3059) (Enterococcus sp.; Enterococcus faecalis (GC 3059)): >64 µg/mL
MIC Enterococcus faecalis (GC 4552) (Enterococcus sp.; Enterococcus faecalis (GC 4552)): >64 µg/mL
MIC Enterococcus faecalis (GC 4553) (Enterococcus sp.; Enterococcus faecalis (GC 4553)): 64 µg/mL (≈ 62.3 µM)
MIC Enterococcus faecalis (GC 4554) (Enterococcus sp.; Enterococcus faecalis (GC 4554)): >64 µg/mL
MIC Enterococcus faecalis (GC 6189) (Enterococcus sp.; Enterococcus faecalis (GC 6189)): >64 µg/mL
MIC Enterococcus faecium (GC 2243) (Enterococcus sp.; Enterococcus faecium (GC 2243)): 64 µg/mL (≈ 62.3 µM)
MIC Enterococcus faecium (GC 4556) (Enterococcus sp.; Enterococcus faecium (GC 4556)): 64 µg/mL (≈ 62.3 µM)
MIC Enterococcus faecium (GC 4557) (Enterococcus sp.; Enterococcus faecium (GC 4557)): 64 µg/mL (≈ 62.3 µM)
MIC Enterococcus avium (GC 4558) (Enterococcus sp.): 64 µg/mL (≈ 62.3 µM)
MIC Enterococcus faecalis (ATCC 29212) (Enterococcus sp.): >64 µg/mL
MIC Enterococcus faecalis (GC 2242) (Enterococcus sp.): 64 µg/mL (≈ 62.3 µM)
MIC Enterococcus faecalis (GC 2691) (Enterococcus sp.): >64 µg/mL
MIC Enterococcus faecalis (GC 3059) (Enterococcus sp.): >64 µg/mL
MIC Enterococcus faecalis (GC 4552) (Enterococcus sp.): >64 µg/mL
MIC Enterococcus faecalis (GC 4553) (Enterococcus sp.): 64 µg/mL (≈ 62.3 µM)
MIC Enterococcus faecalis (GC 4554) (Enterococcus sp.): >64 µg/mL
MIC Enterococcus faecalis (GC 6189) (Enterococcus sp.): >64 µg/mL
MIC Enterococcus faecium (GC 2243) (Enterococcus sp.): 64 µg/mL (≈ 62.3 µM)
MIC Enterococcus faecium (GC 4556) (Enterococcus sp.): 64 µg/mL (≈ 62.3 µM)
MIC Enterococcus faecium (GC 4557) (Enterococcus sp.): 64 µg/mL (≈ 62.3 µM)
